Measured values: PMC8070745, “FEN1 Blockade for Platinum Chemo-Sensitization and Synthetic Lethality in Epithelial Ovarian Cancers” (Cancers, 2021)

How the values were obtained:
Assay type in all cases: cell-based, human
A2780cis cells = test: Clonogenic assay, A2780cis
Method: (§1) Clonogenic assay: In the clonogenic assay (colony formation assays), 32 cells/cm2 were seeded in 6-well plates and left at 37°C in a 5% CO2 atmosphere. Cisplatin (5µM) and/or FEN1i (10µM) and/or Importazole (5 µM, Selleckem, S8446 ) were added at the indicated concentrations and the plates were left at 37 °C in a 5% CO 2 atmosphere for 14 days. Later, the plates were washed with PBS, fixed and stained with a crystal violet, acetic acid and methanol solution and colonies were counted. […]

PEO4 cells [1] = test: Clonogenic assay, PEO4
Method: as §1

PEO1 cells [2] = test: Clonogenic assay, PEO1
Method: as §1

PEO1R cells = test: Clonogenic assay, PEO1R; details: vs parental PEO1 cells
Method: as §1

PEO1R spheroids = test: 3D spheroid assay, PEO1R; details: vs PEO1 spheroids
Method: (§2) with ice cold PBS and fixed in 70% ethanol for 1h at -20°C. After removal of the fixative solution by centrifugation, cells were stained with 2 µg/ml of phospho-Histone (γH2AX) Ser139 (16202A, Millipore, UK) to detect DSBs.
(§3) Cell cycle progression: Cells were treated with 20 µg/ml RNase A (12091021, Invitrogen) and then 10 µg/ml Propidium Iodide (P4170, Sigma Aldrich) was added to determine the cell cycle distribution. The samples were analysed on a Beckman-Coulter FC500 flow cytometer using a 488nm laser for excitation and emission data for PI collected using a 620nm bandpass filter (FL3) and a 525nm bandpass filter (FL1) for FITC-anti-phospho-Histone H2A.X.
(§4) Apoptosis detection: Annexin V detection kit (556547, BD Biosciences) was used to quantify apoptotic cells. Briefly, cells were trypsinized, washed with PBS and the cellular pellet was re-suspended in Anexin Binding Buffer (1×). […] All the samples were analysed on a Beckman-Coulter FC500 flow cytometer. The percentage of apoptotic cells was determined (late apoptotic = FITC-Annexin V positive, PI positive early apoptotic = FITC-Annexin V positive, PI negative; live cells = FITC-Annexin V negative, PI negative) and compared for untreated and treated samples. […]
(§5) To quantify cell viability, LIVE/DEAD Viability/Cytotoxicity Kit (L3224, Thermo Fisher Scientific) was used. […] At least 10 spheroids were measured. […]

[3] = tested on: XRCC1 deficient A2780cis cells; test: FEN1 inhibitor cytotoxicity, XRCC1 deficient A2780cis; details: vs A2780cis control
[4] = tested on: MRE11 deficient A2780cis cells; test: FEN1 inhibitor cytotoxicity, MRE11 deficient A2780cis; details: vs A2780cis control
PEO4 cells [5] = test: γH2AX analysis, PEO4; details: FEN1i plus cisplatin
Method: (§6) Graphical representation and statistical analysis of mean tail moment was performed in GraphPad Prism 6 (GraphPad, La Jolla, USA). All experiments were done in duplicate three times.
(§7) γH2AX FACS: For monitoring DNA double strand break accumulation by γH2AX FACS, 1.05×104 Cells/cm2 were seeded in 6-well plates and left overnight at 37°C in a 5% CO 2 atmosphere. Cisplatin (5µM) or FEN1i (10µM) was later added to cells and incubated for 24h and 48h at 37°C in a 5% CO2 atmosphere. Cells were collected by trypsinization, washed […]
as §2
as §3, with “H2A.X. […]” for “H2A.X.”
(§8) Graphical representation and statistical analysis was performed in GraphPad Prism 7 (GraphPad, La Jolla, USA). […]

PEO4 spheroids = test: 3D spheroid assay, PEO4; details: FEN1i/cisplatin combination vs cisplatin or FEN1i monotherapy
Method: as §2, §3, §4, §5

PEO1 cells [6] = test: Annexin V apoptosis detection, PEO1; details: FEN1i monotherapy
Method: Apoptosis detection: Annexin V detection kit (556547, BD Biosciences) was used to quantify apoptotic cells. Briefly, cells were trypsinized, washed with PBS and the cellular pellet was re-suspended in Anexin Binding Buffer (1×). Following, FITC Anexin V and Propidium Iodide were added to the cells. After incubation, Anexin binding Buffer (1×) was added to each tube. All the samples were analysed on a Beckman-Coulter FC500 flow cytometer. The percentage of apoptotic cells was determined (late apoptotic = FITC-Annexin V positive, PI positive early apoptotic = FITC-Annexin V positive, PI negative; live cells = FITC-Annexin V negative, PI negative) and compared for untreated and treated samples. Graphical representation and statistical analysis was performed in GraphPad Prism 7 (GraphPad, La Jolla, USA).
3D Spheroid assays: A2780_control and A2780 FEN1_ KO as well as A2780cis_control and A2780cis FEN1_ KO cells were seeded at 4500 cells/cm2 density in ultra-low attachment 6-well plates (174932, Thermo Fisher Scientific) and cultured in 3D Tumorsphere Medium (C28070, PromoCell, UK) at 37°C in a 5% CO2 atmosphere. Cells were keep in culture for 7-10 days, toping up with fresh medium every two days until spheroids structures were formed.

POLβ KO A2780cis cells = test: γH2AX analysis, POLβ KO A2780cis; details: FEN1i-treated
Method: as §6, §7, §2
as §3, with “H2A.X. […]” for “H2A.X.”
as §8

| SMILES | cisplatin sensitivity (A2780cis cells) | cisplatin sensitivity (PEO4 cells [1]) | cisplatin sensitivity (PEO1 cells [2]) | sensitivity to cisplatin (PEO1R cells) | spheroid sensitivity to cisplatin (PEO1R spheroids) | cytotoxicity of FEN1i monotherapy (A2780cis cells; 10 µM) | effect on cisplatin cytotoxicity (A2780cis cells; FEN1i 10 µM plus cisplatin) | effect on cisplatin cytotoxicity (PEO4 cells [1]; FEN1i plus cisplatin) | sensitivity to FEN1 inhibitor (PEO1 cells [2]; BRCA2 deficient PEO1 vs BRCA2 proficient PEO4) | sensitivity to FEN1 inhibitor (PEO1R cells) | sensitivity to FEN1 inhibitor [3] | sensitivity to FEN1 inhibitor [4] | γH2AX nuclear foci (PEO4 cells [5]) | cell death in 3D spheroids (PEO4 spheroids) | apoptosis (PEO1 cells [6]) | spheroid sensitivity to FEN1 inhibitor (PEO1R spheroids) | DSBs (γH2AX) (POLβ KO A2780cis cells) |
| --- | --- | --- | --- | --- | --- | --- | --- | --- | --- | --- | --- | --- | --- | --- | --- | --- | --- |
| N.N.[Cl][Pt][Cl] [cisplatin] | cisplatin-resistant | cisplatin resistant | cisplatin sensitive | resistant | resistant | – | – | – | – | – | – | – | – | – | – | – | – |
| Cc1csc2c1c(=O)n(O)c(=O)n2-c1ccccc1 [PTPD, 3-hydroxy-5-methyl-1-phenylthieno [2,3 d]pyrimidine-2,4(1H,3H)-dione] | – | – | – | – | – | non-toxic | significantly enhanced the cytotoxicity of cisplatin | potentiated cisplatin cytotoxicity | more sensitive to FEN1 inhibition in comparison to PEO4 cells | resistant | did not observe any increased sensitivity | did not observe increased sensitivity | increased nuclear γH2AX nuclear foci accumulation | increased cell death | induction of apoptosis | resistant | increased DSBs |
